This passage reports AC50 results from article PMC7822874, “Chemoprotective antimalarials identified through quantitative high-throughput screening of Plasmodium blood and liver stage parasites” (Scientific Reports, 2021).

Structures are written as SMILES.

The test system of the first assay is Plasmodium falciparum Dd2 asexual blood stage parasites. Kind of assay: microbe, parasite or virus in culture. More on the design: species or system Plasmodium falciparum Dd2 in human erythrocytes; single determination (one 11-point concentration-response curve). The conditions noted are these: Plasmodium falciparum, DD2, Erythrocyte, 72 h.
`CC(C(=O)c1c[nH]c2ccccc12)N1CCN(C(=O)c2ccco2)CC1` (centres unmarked) [MLS000768379-01] returned an AC50 of 5.96 µM.

Still in this assay, the particulars now being: Plasmodium falciparum, DD2, Erythrocyte, 72 h; read-out: AC50.
Take `COc1ccc(N2CCN(C(=O)CSc3nc(-c4ccc(C(C)C)cc4)no3)CC2)cc1` [NCGC00127936-01]: the AC50 worked out at 0.531 µM.
Consider `CCN(CC)C(=O)c1sc(NC(=O)C(C)Sc2nc(-c3ccccc3)cc(C(F)(F)F)n2)c(C(=O)OC)c1C` (centres unmarked) [NCGC00101276-01], for which the AC50 is 0.596 µM.
For the compound `N#Cc1ccc(CN2CC[C@@H]3C(=O)NCCCCCCN(Cc4ccncc4)[C@@H]3C2)cc1` [NCGC00467216-01], the AC50 was found to be 10.6 µM.
In the case of `COc1ccc(OCC(=O)NCC2(N3CCN(C)CC3)CCCCC2)cc1` [NCGC00118575-01], the AC50 came to 1.88 µM.
Regarding `COc1ccc2c(c1)OC(C)(C)[C@@H](c1ccccc1)[C@@H]2c1ccc(OCCN2CCCC2)cc1` [NCGC00181100-01], the AC50 is 6.68 µM.
On the same count and under the same terms, as for `COc1ccc(C)cc1NCc1cc(=O)oc2cc(-c3ccccc3)c(O)cc12` [MLS000331048-01], the figure is 5.31 µM; as for `Cc1cccc(N2CCN(C(=O)CCc3nnc4n(CC(C)C)c(=O)c5ccccc5n34)CC2)c1C` [NCGC00112784-01], 3.35 µM.
Same read-out and setting: then `COc1cc2c(cc1OC1CCCC1)NC(=O)C21CCN(C(=O)c2cccc(C#N)c2)CC1` [NCGC00416876-01], with 8.41 µM; and `Cc1ncc(CN2CCC(C(=O)Nc3ccc(-n4cccn4)cc3)CC2)s1` [MLS001101085-01], with 4.73 µM.
On the same count and under the same terms, as for `Cn1ccc(NCc2nnc(C(=O)N3CCC[C@@H]3C(c3ccccc3)c3ccccc3)n2-c2ccccc2)n1` [NCGC00415774-01], the figure is 1.33 µM; as for `O=C(NCCc1ccncc1)c1ccc(-c2nnc3ccc(NC(=O)C4CCC4)cn23)cc1` [NCGC00429902-01], 2.99 µM; as for `Cc1ccccc1Oc1nc(-c2ccccn2)nc2ccccc12` [MLS000769500-01], 6.68 µM.
As to `CC(Oc1ccc(F)cc1)C(=O)Nc1cc(C(F)(F)F)ccc1-n1cncn1` (centres unmarked) [MLS001160637-01], the AC50 is 1.68 µM.
Same read-out and setting: then `O=c1c2ccccc2sc2nc(C3CCCCC3)n(Cc3ccco3)c(=O)c12` [MLS000084065-01], with 7.5 µM; and `O=C(CN1CCC(n2nnc3cc(F)ccc32)CC1)Nc1ccccc1N1CCOCC1` [MLS000030185-01], with 5.31 µM; and `CSc1nnc(-c2cc3ccccc3cc2O)n1C` [MLS000035069-01], with 7.5 µM.
Same read-out and setting: as for `Cc1ccc2nc(-c3ccc(O)c(O)c3)cn2c1` [MLS001209043-01], the figure is 13.3 µM; as for `COc1ccc(CN2C(=O)C(C)N(C(=O)c3c(F)cccc3F)c3ccccc32)cc1` (centres unmarked) [MLS001166304-01], 7.5 µM; as for `Cc1noc(C)c1-c1cc2cc(CN(C)C)oc2c(NCCc2ccccc2)n1` [NCGC00417471-01], 13.7 µM.
Same read-out and setting: as for `CCCCOc1ccc(NC2=NC(N)=NC3(CCCCC3)N2)cc1` [MLS000109806-01], the figure is 8.41 µM.
Turning to `CCc1c(C)[nH]c2ccccc2c1=O` [MLS000030676-01], the AC50 was determined as 10.6 µM.
Take `CCC(CC)c1cc([C@H]2CN3CC[C@H]2C[C@@H]3CNC(=O)c2ccc(C)cc2)nc(-c2ccncc2)n1` [NCGC00400216-01]: the AC50 came out at 10.6 µM.
On the same count and under the same terms, as for `Cc1nc2sc(C(c3ccco3)N3CCN(C(c4ccccc4)c4ccccc4)CC3)c(O)n2n1` (centres unmarked) [MLS000101802-01], the figure is 5.96 µM; as for `CC(C)CN(Cc1cc(=O)oc2cc3c(cc12)CCCC3)CC(C)C` [MLS000763058-01], 15 µM.
For `O=C1CO[C@H]2CCN(Cc3ccc4c(c3)CCO4)CC[C@@H]2N1Cc1ccccc1` [NCGC00409937-01], the AC50 was determined as 17.2 µM.
Same read-out and setting: as for `COCCNc1cc(N2CCN(C3CCCCC3)CC2)c2noc3c2c1C(=O)c1ccccc1-3` [NCGC00111067-01], the figure is 15 µM; as for `CCN(CC)c1ccc(NC(=O)COc2ccccc2C#N)cc1S(=O)(=O)Nc1ccccc1OC` [MLS000339599-01], 7.5 µM.
Same read-out and setting: then `COc1ccc(CN2CC3(CCN(C(=O)Nc4ccc(OC)c(F)c4)CC3)C2=O)cc1` [NCGC00460264-01], with 10.6 µM; and `COc1ccc(C2Nc3ccccc3C(=O)N2Cc2ccccc2)cc1COc1ccc(Cl)cc1Cl` (centres unmarked) [NCGC00165212-01], with 8.41 µM.
On the same count and under the same terms, then `CC(=O)Nc1cccc(C(=O)N2CCC3(CC2)NC(c2ccc(C)cc2)=NO3)c1` [NCGC00446797-01], with 0.841 µM; and `COc1ccc(C(=O)N2CCC3(CC2)COc2ccccc2CN3)cc1` [NCGC00477552-01], with 10.6 µM.
Turning to `CCN1CCN(Cc2ccc(NC(=O)c3cc(NC(=O)C4=NN(c5ccccc5)C(=O)C4)cc(OC)c3)cc2C(F)(F)F)CC1` [MLS000911574-01], the AC50 worked out at 8.41 µM.
The same measure, in the same setting: as for `COc1cccc(CN2CCCC(N3CCN(c4cccc(C(F)(F)F)c4)CC3)C2)c1O` (centres unmarked) [NCGC00428830-01], the figure is 0.841 µM; as for `O=[N+]([O-])c1ccc([S+](=O)([O-])N2CCn3cccc3C2c2ccc(Br)cc2)cc1` (centres unmarked) [NCGC00137374-01], 5.96 µM; as for `CCN(C(=O)CSc1nc(-c2ccc(C(C)C)cc2)no1)c1ccccc1` [NCGC00127904-01], 0.944 µM.
On the same count and under the same terms, as for `COc1ccc(CCNC(=O)CC(c2ccccc2OC)c2c[nH]c3ccccc23)cc1OC` (centres unmarked) [NCGC00473331-01], the figure is 13.3 µM; as for `COc1ccc(C(=O)N[C@@H]2CN(Cc3cccc(OC)c3)CCC[C@H]2O)cc1` [NCGC00401653-01], 10.9 µM.
In the case of `CCOc1cc(C(=O)N2CCC(CC3CC(c4ccc(Cl)cc4)=NO3)(C(=O)NCC3CCCCC3)CC2)cc(OCC)c1OCC` (centres unmarked) [MLS001143937-01], the AC50 came out at 0.841 µM.
Still for that read-out and setting: then `Cc1ccc([S+](=O)([O-])N2CCC(OC3CCN(Cc4ccccc4)CC3)CC2)cc1C` [NCGC00444948-01], with 15 µM; and `COc1cccc(C(=O)N2CCC(N3C[C@H](O)C[C@H]3C(=O)N3CCc4ccccc4C3)CC2)c1` [NCGC00460061-01], with 8.41 µM.
With `O=C1N=C(NC2CCCCC2)C2(CCN(Cc3ccc(F)cc3)C2)N1c1cc(F)cc(F)c1` (centres unmarked) [NCGC00374193-01], the AC50 was found to be 4.22 µM.
Same read-out and setting: as for `CCc1cccc(-n2c(=O)c3cccnc3n2CC(=O)Nc2ccc(F)c(C)c2)c1` [NCGC00128424-01], the figure is 2.66 µM; as for `COc1cc(NC(=O)Cn2ncc3c(=O)oc4ccccc4c32)cc(OC)c1OC` [NCGC00108571-01], 2.66 µM.
On the same count and under the same terms, then `COc1ccc(-c2cc(-c3cccc(NC(C)=O)c3)cn3cncc23)cn1` [NCGC00412201-01], with 21.7 µM.
On to `CC1=C(C(=O)Nc2ccccc2)C(c2cc(Br)ccc2F)n2ncc(C(=O)Nc3ccccc3)c2N1` (centres unmarked) [NCGC00126266-01], for which the AC50 amounted to 1.68 µM.
Still for that read-out and setting: then `CC1=C[C@@H](CN(C)C)[C@H](C(C)C)C[C@H]1Cc1nc2cccc(C)c2[nH]1` [NCGC00393074-01], with 15.3 µM; and `Cc1nn(CCC(=O)N[C@H]2CC[C@H]2NC2CCCCC2)c(C)c1C` [NCGC00442733-01], with 6.68 µM.
The same measure, in the same setting: then `Cc1ccc(NC(=O)Cn2c(-c3ccccc3)nc(C)c(CCO)c2=O)cc1Cl` [NCGC00470911-01], with 10.6 µM; and `CCOC(=O)c1c(C)[nH]c(C)c1[S+](=O)([O-])N1CCCC(C(=O)N2CCN(c3cccc(C)c3C)CC2)C1` (centres unmarked) [NCGC00138103-01], with 1.33 µM; and `CNc1cc(C)nc(-n2nc(C)cc2C)n1` [MLS000079642-01], with 8.41 µM.
With `CC(C)(C)NC(=O)c1ccc(-c2nnc3ccc(NC(=O)C4CC4)cn23)cc1` [NCGC00429854-01], the AC50 is 9.44 µM.
Regarding `CC1(c2ccccc2)N(Cc2cccnc2)C(=O)OC12CCN(C(=O)Cc1ccc(Cl)cc1)CC2` (centres unmarked) [NCGC00415462-01], the AC50 came to 13.3 µM.
Still for that read-out and setting: then `CCOC(=O)C(C)/C(C)=N/N=C(\N)S` (centres unmarked) [MLS000701955-01], with 2.66 µM; and `O=C1c2c(nc(CN3CCCC(CO)C3)n2Cc2ccccc2)NCCN1Cc1cccc(Cl)c1` (centres unmarked) [NCGC00415148-01], with 15 µM; and `COC(=O)CC1Oc2ccc(Cl)cc2-n2cc(-c3ccc(F)cc3)nc21` (centres unmarked) [NCGC00164810-01], with 4.22 µM.
The same measure, in the same setting: as for `N#CC1CCN(C(=O)c2nc(-c3cccc(C(F)(F)F)c3)c3cnccn23)CC1` [NCGC00476479-01], the figure is 16.8 µM; as for `CCN(CC)CCNC(O)=C1C(=O)c2cccc3c2N(CCC3)C1=O` [MLS000078957-01], 10.6 µM.
On the same count and under the same terms, then `COC(=O)[C@@H]1Cc2ncn(Cc3ccc(OC)cc3)c2CN1[S+](C)(=O)[O-]` [NCGC00401682-01], with 19.3 µM; and `O=C1C=C(c2cccc(CO)c2)C[C@@H](c2ccc(Cl)cc2)C1` [MLS002302575-01], with 3.76 µM.
As for `O=c1nc(C2CCN(S(=O)(=O)/C=C/c3ccccc3)CC2)[nH]c2c1nnn2Cc1ccc(F)cc1` [MLS001229566-01], the AC50 was determined as 13.3 µM.
Still for that read-out and setting: as for `CCn1cc(CN2CC(Oc3ccc(-c4noc(-c5ccncc5)n4)cc3)C2)cn1` [NCGC00458017-01], the figure is 13.3 µM; as for `CN1CCN(C(=O)C2(N(C)CCc3ccccc3)Cc3ccccc3C2)CC1` [NCGC00438807-01], 2.66 µM; as for `CC1=C[C@@H](CN2CCCC2)[C@H](C(C)C)C[C@H]1Cc1nnc(-c2ccc([N+](=O)[O-])cc2)o1` [NCGC00395425-01], 3.85 µM.
Same read-out and setting: then `c1cnc(N2CCOCC2)c(OC2CCNC2)n1` (centres unmarked) [NCGC00434832-01], with 7.5 µM.
On the same count and under the same terms, as for `Cc1nc(-c2ccccc2)n(CC(=O)Nc2ccc(Cl)cc2)c(=O)c1CCO` [NCGC00470932-01], the figure is 16.8 µM; as for `O=C(NC[C@H]1C[C@@H]2CC[N@]1C[C@@H]2CN1CCC(Cc2ccccc2)CC1)c1ccccc1` [NCGC00421103-01], 7.69 µM; as for `CC(C)C(=O)Nc1oc(-c2ccccc2)cc1C#N` [MLS000721149-01], 6.68 µM.
As to `Fc1ccc(Oc2nc(-c3ccccn3)nc3ccccc23)cc1` [MLS000769507-01], the AC50 amounted to 13.3 µM.
Same read-out and setting: then `Cn1cccc1CN1CCCC2(C1)C(NC1CCCCC1)=NC(=O)N2c1cccnc1` (centres unmarked) [NCGC00374042-01], with 5.31 µM; and `COc1cccc(Nc2ccc3c(n2)C(C)(C(=O)N2CCCC2)CN(C)C3)c1` (centres unmarked) [NCGC00414569-01], with 17.2 µM.

In general, AC50 refers to the concentration at which the activity in the assay is half-maximal.
